Experimental data as given in patent US8906933B2, “Dihydropyrimidin-2(1H)-one compounds as neurokinin-3 receptor antagonists” (N30 Pharmaceuticals, Inc., priority 2010, dated 2014).

Legend:
GSNOR = GSNOR (Homo sapiens (Human), UniProt P11766); experiment: GSNOR IC50 (method in incorporated applications); format: biochemical
human NK3 receptor [1] = target: T1, human NK3 receptor (Homo sapiens (Human), UniProt P29371); experiment: biochemical
human NK3 receptor [2] = target: T1, human NK3 receptor; experiment: Human NK3 receptor binding assay at 1 uM; conditions: 1 μM test compound; [3H]SR142801, CHO cell membranes; read-out: percent inhibition at 1 μM
Method: Antagonist activity was evaluated at a concentration of 1 μM for a representative subset of test compounds, and the results were expressed as the percent inhibition at that concentration.
Each test compound was evaluated at a single concentration of 1 μM. […] The results are expressed as a percent of control specific binding ((measured specific binding/control specific binding)×100) obtained in the presence of the test compounds.

human NK3 receptor [3] = target: T1, human NK3 receptor; experiment: Human NK3 receptor binding assay at 10 μM; conditions: 10 μM test compound; [3H]SR142801, CHO cell membranes; read-out: percent inhibition at 10 μM
Method: Antagonist activity was evaluated at a concentration of 10 μM for a representative subset of test compounds, and the results were expressed as the percent inhibition at that concentration.
Each test compound was evaluated at a single concentration of 10 μM. […] The results are expressed as a percent of control specific binding ((measured specific binding/control specific binding)×100) obtained in the presence of the test compounds.

human NK3 receptor [4] = target: T1, human NK3 receptor; experiment: Human neurokinin NK3 receptor antagonist effect (agonist-induced Ca2+ mobilization, CHO cells); format: cell-based; conditions: 10 uM; response to 1 nM [MePhe7]-NKB, CHO cells transfected with human NK3 receptor
Method: This model evaluates the antagonist activity of compounds in CHO cells transfected with the human NK3 receptor. Antagonist activity is determined by measuring the effect of compounds on agonist-induced cytosolic Ca^2+ ion mobilization using a fluorimetric detection method.
The cells are suspended in DMEM buffer (Invitrogen) supplemented with 0.1% FCS and distributed in 96-well microplates at a density of 3×10^4 cells/well. The fluorescent probe (Calcium4, Molecular Device) is mixed with probenicid in HBSS buffer plus 20 mM Hepes (pH 7.4) (Invitrogen) and added into each well. The probe is allowed to equilibrate with the cells for 60 minutes at 37° C. followed by a 15 minute incubation at 22° C. Thereafter, the assay plates are positioned in a microplate reader (CellLux, PerkinElmer) and the test compound, reference antagonist or HBSS buffer is added. 5 minutes later, 1 nM [MePhe^7]-NKB or HBSS buffer (basal control) is added, and changes in fluorescence intensity are measured.
The standard reference antagonist is SB 222200, which is tested in each experiment at several concentrations to generate a concentration-response curve from which an IC50 value can be calculated.

human NK3 receptor [5] = target: T1, human NK3 receptor; experiment: Human neurokinin NK3 receptor agonist effect (Ca2+ mobilization, CHO cells); format: cell-based; conditions: highest tested concentration; CHO cells transfected with human NK3 receptor
Method: This model evaluates the agonist activity of compounds in CHO cells transfected with the human NK3 receptor. Agonist activity is determined by measuring the effect of compounds on cytosolic Ca^2+ ion mobilization using a fluorimetric detection method.
The transfected CHO cells are suspended in DMEM buffer (Invitrogen) supplemented with 0.1% FCS, then distributed in 96-well microplates at a density of 3×10^4 cells/well. The fluorescent probe (Calcium4, Molecular Device) is mixed with probenicid in HBSS buffer plus 20 mM Hepes (pH 7.4) (Invitrogen) and added into each well. The probe is allowed to equilibrate with the cells for 60 minutes at 37° C. followed by a 15 minute incubation at 22° C. Thereafter, the assay plates are positioned in a microplate reader (CellLux, PerkinElmer) and the test compound, reference agonist or HBSS buffer (basal control) is added. Changes in fluorescence intensity, which varies proportionally to the free cytosolic Ca^2+ ion concentration, are then measured. For stimulated control measurements, [MePhe^7]-NKB at 10 nM is added in separate assay wells, and the results are expressed as a percent of the control response to 10 nM [MePhe^7]-NKB.
The standard reference agonist is [MePhe^7]-NKB, which is tested in each experiment at several concentrations to generate a concentration-response curve from which an EC50 value can be calculated.

T1 sequence (P29371 whole entry): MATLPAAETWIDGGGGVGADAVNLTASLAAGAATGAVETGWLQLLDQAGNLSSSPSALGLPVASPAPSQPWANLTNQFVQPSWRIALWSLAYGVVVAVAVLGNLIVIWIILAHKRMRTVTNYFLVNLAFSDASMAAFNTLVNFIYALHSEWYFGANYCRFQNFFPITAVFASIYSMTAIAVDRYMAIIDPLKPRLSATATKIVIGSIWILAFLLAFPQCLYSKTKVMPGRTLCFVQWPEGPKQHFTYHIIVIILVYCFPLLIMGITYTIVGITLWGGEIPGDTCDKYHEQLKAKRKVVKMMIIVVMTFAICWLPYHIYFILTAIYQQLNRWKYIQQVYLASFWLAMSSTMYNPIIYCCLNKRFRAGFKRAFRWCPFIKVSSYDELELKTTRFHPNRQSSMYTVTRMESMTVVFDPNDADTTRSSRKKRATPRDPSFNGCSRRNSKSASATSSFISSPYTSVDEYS
GSNOR, sequence (P11766 whole entry): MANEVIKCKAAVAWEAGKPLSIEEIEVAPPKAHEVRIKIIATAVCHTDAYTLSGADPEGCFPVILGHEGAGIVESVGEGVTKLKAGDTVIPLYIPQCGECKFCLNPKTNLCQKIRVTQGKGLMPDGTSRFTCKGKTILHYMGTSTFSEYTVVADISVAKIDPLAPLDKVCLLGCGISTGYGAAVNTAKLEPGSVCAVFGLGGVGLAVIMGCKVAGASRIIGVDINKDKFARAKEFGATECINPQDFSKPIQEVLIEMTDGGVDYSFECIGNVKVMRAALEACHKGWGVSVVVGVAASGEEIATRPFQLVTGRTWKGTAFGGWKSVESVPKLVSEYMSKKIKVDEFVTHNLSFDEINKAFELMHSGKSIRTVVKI

| SMILES | IC50 (human NK3 receptor [1]) [nM] | inhibition at 1 µM (human NK3 receptor [2]) [%] | other results |
| --- | --- | --- | --- |
| Cn1cc(C2=C(c3ccsc3)C(c3ccc(C(=O)O)c(O)c3)NC(=O)N2)cn1 (racemic) [2-hydroxy-4-(6-(1-methyl-1H-pyrazol-4-yl)-2-oxo-5-(thiophen-3-yl)-1,2,3,4-tetrahydropyrimidin-4-yl)benzoic acid] |  |  | IC50 (GSNOR): 39 nM |
| CCOc1cc(C2NC(=O)NC(c3ccccc3)=C2c2ccccc2)cc2oc(=O)[nH]c12 (stereo not shown) [4-ethoxy-6-(2-oxo-5,6-diphenyl-1,2,3,4-tetrahydropyrimidin-4-yl)benzo[d]oxazol-2(3H)-one] | ≤ 1000 | > 50 |  |
| CCOc1cc([C@@H]2NC(=O)NC(c3cccnc3)=C2c2ccccc2)cc([N+](=O)[O-])c1O [4-(3-ethoxy-4-hydroxy-5-nitrophenyl)-5-phenyl-6-(pyridin-3-yl)-3,4-dihydropyrimidin-2(1H)-one] | 55000 |  |  |
| Cn1cc(C2=C(c3ccsc3)[C@H](c3ccc(C(=O)O)c(O)c3)NC(=O)N2)cn1 [2-hydroxy-4-(6-(1-methyl-1H-pyrazol-4-yl)-2-oxo-5-(thiophen-3-yl)-1,2,3,4-tetrahydropyrimidin-4-yl)benzoic acid] |  |  | IC50 (GSNOR): 23 nM |
| CCOc1cc(C2NC(=O)NC(c3ccccc3)=C2c2ccccc2F)cc([N+](=O)[O-])c1O (stereo not shown) [4-(3-ethoxy-4-hydroxy-5-nitrophenyl)-5-(2-fluorophenyl)-6-phenyl-3,4-dihydropyrimidin-2(1H)-one] |  | > 50 | inhibition at 10 µM (human NK3 receptor [3]): > 50% |
| CCOc1cc(C2NC(=O)NC(c3ccccc3)=C2C2CCCCC2)cc([N+](=O)[O-])c1O (stereo not shown) [5-cyclohexyl-4-(3-ethoxy-4-hydroxy-5-nitrophenyl)-6-phenyl-3,4-dihydropyrimidin-2(1H)-one] | ≤ 100 | > 50 | inhibition at 10 µM (human NK3 receptor [3]): > 50%; antagonist effect (human NK3 receptor [4]): antagonist effect was seen; agonist effect (human NK3 receptor [5]): no effect was seen |
| CCOc1cc(C2C(c3ccccc3)=C(c3ccccc3)N(C)C(=O)N2C)cc([N+](=O)[O-])c1O (stereo not shown) [4-(3-ethoxy-4-hydroxy-5-nitrophenyl)-1,3-dimethyl-5,6-diphenyl-3,4-dihydropyrimidin-2(1H)-one] | ≤ 100 | > 50 |  |
| CCOc1cc(C2NC(=O)N(C)C(c3ccccc3)=C2c2ccccc2)cc([N+](=O)[O-])c1O (stereo not shown) [4-(3-ethoxy-4-hydroxy-5-nitrophenyl)-1-methyl-5,6-diphenyl-3,4-dihydropyrimidin-2(1H)-one] | ≤ 1000 | > 50 |  |
| COCCOc1cc(C2NC(=O)NC(c3ccccc3)=C2c2ccccc2)cc([N+](=O)[O-])c1O (stereo not shown) [4-(4-hydroxy-3-(2-methoxyethoxy)-5-nitrophenyl)-5,6-diphenyl-3,4-dihydropyrimidin-2(1H)-one] |  | > 50 | inhibition at 10 µM (human NK3 receptor [3]): > 50% |
| CCOc1cc(C2NC(=O)NC(c3ccccc3)=C2c2ccccc2)cc(C#N)c1O (stereo not shown) [3-ethoxy-2-hydroxy-5-(2-oxo-5,6-diphenyl-1,2,3,4-tetrahydropyrimidin-4-yl)benzonitrile] | ≤ 1000 | > 50 | inhibition at 10 µM (human NK3 receptor [3]): > 50% |
| CCOc1cc(C2NC(=O)NC(c3cccc(OC)c3)=C2c2ccccc2)cc([N+](=O)[O-])c1O (stereo not shown) [4-(3-ethoxy-4-hydroxy-5-nitrophenyl)-6-(3-methoxyphenyl)-5-phenyl-3,4-dihydropyrimidin-2(1H)-one] |  | > 50 | inhibition at 10 µM (human NK3 receptor [3]): > 50% |
| CCOc1cc([C@H]2NC(=O)NC(c3cccnc3)=C2c2ccccc2)cc([N+](=O)[O-])c1O [(R)-4-(3-ethoxy-4-hydroxy-5-nitrophenyl)-5-phenyl-6-(pyridin-3-yl)-3,4-dihydropyrimidin-2(1H)-one] | 700 |  |  |
| CCOc1cc(C2C(c3ccccc3)=C(c3ccccc3)NC(=O)N2C)cc([N+](=O)[O-])c1O (stereo not shown) [4-(3-ethoxy-4-hydroxy-5-nitrophenyl)-3-methyl-5,6-diphenyl-3,4-dihydropyrimidin-2(1H)-one] | ≤ 1000 | > 50 |  |

Further lines, with some results ahead:

| IC50 (human NK3 receptor [1]) [nM] | inhibition at 1 µM (human NK3 receptor [2]) [%] | SMILES | other results |
| --- | --- | --- | --- |
| 19000 |  | CCOc1cc([C@@H]2NC(=O)NC(c3ccccc3)=C2c2ccccc2)cc([N+](=O)[O-])c1O [4-(3-ethoxy-4-hydroxy-5-nitrophenyl)-5,6-diphenyl-3,4-dihydropyrimidin-2(1H)-one] |  |
| ≤ 1000 | > 50 | CCOc1cc(C2NC(=O)NC(c3ccccc3)=C2c2cccc(C)c2)cc([N+](=O)[O-])c1O (stereo not shown) [4-(3-ethoxy-4-hydroxy-5-nitrophenyl)-6-phenyl-5-m-tolyl-3,4-dihydropyrimidin-2(1H)-one] |  |
| 22000 |  | CCOc1cc([C@@H]2NC(=O)NC(c3ccccc3)=C2c2ccsc2)cc([N+](=O)[O-])c1O [4-(3-ethoxy-4-hydroxy-5-nitrophenyl)-6-phenyl-5-(thiophen-3-yl)-3,4-dihydropyrimidin-2(1H)-one] |  |
| 110 |  | CCOc1cc([C@H]2NC(=O)NC(c3ccccc3)=C2c2ccccc2)cc([N+](=O)[O-])c1O [(R)-4-(3-ethoxy-4-hydroxy-5-nitrophenyl)-5,6-diphenyl-3,4-dihydropyrimidin-2(1H)-one] |  |
| 1400 |  | CCOc1cc([C@H]2NC(=O)NC(c3ccccc3)=C2c2ccsc2)cc([N+](=O)[O-])c1O [(R)-4-(3-ethoxy-4-hydroxy-5-nitrophenyl)-6-phenyl-5-(thiophen-3-yl)-3,4-dihydropyrimidin-2(1H)-one] |  |
| ≤ 1000 | > 50 | CCOc1cc(C2NC(=O)NC(c3ccccc3)=C2c2cccc(Cl)c2)cc([N+](=O)[O-])c1O (stereo not shown) [5-(3-chlorophenyl)-4-(3-ethoxy-4-hydroxy-5-nitrophenyl)-6-phenyl-3,4-dihydropyrimidin-2(1H)-one] |  |
